The test system of experiment [1] is Erythroleukemia cell line. Kind of experiment: Compound was evaluated for the inhibition of Cellular Replication (deoxy-coformycin added at 25 uM). The experiment is classed as functional. Conditions: Mus musculus, read-out: ID50 (the source's name).
Experiment [2] relates to Erythroleukemia cell line. Kind of experiment: Percent benzidine-positive cells in friend erythroleukemia cells was evaluated (deoxy-coformycin added at 25 uM). It is filed as functional, Mus musculus.
The subject of experiment [3] is Erythroleukemia cell line. Kind of experiment: Optimum concentration for the extent of differentiation of friend erythroleukemia cells was evaluated.(deoxy-coformycin added at 25 uM). It is filed as functional, Mus musculus.
In experiment [4] the test system is Erythroleukemia cell line. Kind of experiment: Inhibition of Cellular Replication of friend erythroleukemia cells. It is filed as functional. Conditions: Mus musculus, read-out: ID50 (the source's name).
Experiment [5] has as its system Erythroleukemia cell line. The experiment in a line: Percent benzidine-positive cell differentiation in friend erythroleukemia cells. The experiment is classed as functional, Mus musculus.
Experiment [6] concerns Erythroleukemia cell line. Kind of experiment: Optimum concentration for differentiation of friend erythroleukemia cells. The experiment is classed as functional, Mus musculus.
Experiment [7] deals with Erythroleukemia cell line. Kind of experiment: Percent benzidine-positive cell differentiation of friend erythroleukemia cells was evaluated.(deoxy-coformycin added at 25 uM). It is filed as functional, Mus musculus.
In experiment [8] the test system is Erythroleukemia cell line. The experiment in a line: Percent benzidine-positive cell differentiation of friend erythroleukemia cells was evaluated (deoxy-coformycin added at 25 uM). It is filed as functional, Mus musculus.

A value given as a limit tells only on which side of the number the result lay.

With `Nc1ncnc2c1nc(Br)n2[C@@H]1O[C@H](CO)[C@@H](O)[C@H]1O`, the IC50 in experiment [1] and in experiment [4] was above 1000 µM in each case. Moreover, the Differentiation in experiment [2] and in experiment [5] was 1% each time. In addition, the Optimal concentration in experiment [3] and in experiment [6] was 1 mM throughout.

Turning to `OC[C@H]1O[C@@H](n2cnc3c(O)ncnc32)[C@@H](O)[C@@H]1O`, the IC50 in experiment [4] stood at 600 µM. Further, the Differentiation in experiment [5] stood at 82%. For the same compound, the Optimal concentration in experiment [6] is on record as 0.2 mM.

For the compound `[N-]=[N+]=Nc1nc2c(O)ncnc2n1[C@@H]1O[C@H](CO)[C@@H](O)[C@@H]1O`, in experiment [4], the IC50 is 860 µM. In experiment [5], this compound had a Differentiation of 20%. The Optimal concentration in experiment [6] amounted to 0.5 mM.

Regarding `Nc1nc2c(O)ncnc2n1[C@@H]1O[C@H](CO)[C@@H](O)[C@H]1O`, the IC50 in experiment [4] was found to be 52 µM. This compound also yielded a Differentiation in experiment [5] of 1%. The compound also had an Optimal concentration in experiment [6] of 0.025 mM.

Turning to `Nc1nc2c(O)ncnc2n1[C@@H]1O[C@H](CO)[C@@H](O)[C@@H]1O`, the IC50 in experiment [4] was above 5000 µM. Also, the Differentiation in experiment [5] is reported as 6%. The compound further returned an Optimal concentration in experiment [6] of 4 mM.

Turning to `[N-]=[N+]=Nc1nc2c(O)ncnc2n1[C@@H]1O[C@H](CO)[C@@H](O)[C@H]1O`, the IC50 in experiment [4] is 720 µM. Moreover, the Differentiation in experiment [5] amounted to 30%. Also, the Optimal concentration in experiment [6] was 1 mM.

With `CSc1ncnc2c1ncn2[C@@H]1O[C@H](CO)[C@@H](O)[C@@H]1O`, the IC50 in experiment [4] is above 3000 µM. Also, the Differentiation in experiment [5] was 49%. Moreover, the Optimal concentration in experiment [6] came to 1.5 mM.

On to `OC[C@H]1O[C@@H](n2c(Br)nc3c(O)ncnc32)[C@@H](O)[C@@H]1O`, for which the IC50 in experiment [4] was above 2500 µM. In experiment [5], this compound showed a Differentiation of 1%. This compound also came in with an Optimal concentration in experiment [6] of 4 mM.

As to `CN(C)c1nc2c(O)ncnc2n1[C@@H]1O[C@H](CO)[C@@H](O)[C@@H]1O`, the IC50 in experiment [4] is above 8000 µM. The compound also yielded a Differentiation in experiment [5] of 2%. In experiment [6], this compound had an Optimal concentration of 8 mM.

With `Nc1ncnc2c1nc(Br)n2[C@@H]1O[C@H](CO)[C@@H](O)[C@@H]1O`, the IC50 in experiment [1] turned out to be 850 µM; in experiment [4] it was 1600 µM. Further, the figures for the Optimal concentration in experiment [3] and in experiment [6] were 0.8 mM and 1.6 mM, respectively. Also, the Differentiation in experiment [7] was determined as 2%; in experiment [5], 1%.

As to `OC[C@H]1O[C@@H](n2cnc3c(S)ncnc32)[C@@H](O)[C@@H]1O`, the IC50 in experiment [4] is 110 µM. This compound also showed a Differentiation in experiment [5] of 56%. The compound further returned an Optimal concentration in experiment [6] of 0.02 mM.

Take `OC[C@H]1O[C@@H](n2c(Br)nc3c(O)ncnc32)[C@H](O)[C@@H]1O`: the IC50 in experiment [4] was above 5000 µM. The same compound came in with a Differentiation in experiment [5] of 1%. For the same compound, the Optimal concentration in experiment [6] was 5 mM.

With `CN(C)c1nc2c(O)ncnc2n1[C@@H]1O[C@H](CO)[C@@H](O)[C@H]1O`, the IC50 in experiment [4] is above 8000 µM. Also, the Differentiation in experiment [5] is recorded as 3%. Moreover, the Optimal concentration in experiment [6] worked out at 8 mM.

On to `OC[C@H]1O[C@@H](n2cnc3c(NO)ncnc32)[C@@H](O)[C@@H]1O`, for which the values for the IC50 in experiment [1] and in experiment [4] were 69 µM and 540 µM, respectively. For the same compound, the Differentiation was found to be 20% in experiment [2] and 74% in experiment [5]. Also, the results for the Optimal concentration in experiment [3] and in experiment [6] were 0.04 mM and 0.2 mM, respectively.

With `[N-]=[N+]=N[C@H]1[C@H](O)[C@@H](CO)O[C@H]1n1cnc2c(O)ncnc21`, the IC50 in experiment [4] was determined as 6000 µM. The same compound had a Differentiation in experiment [5] of 40%. This compound registered an Optimal concentration in experiment [6] of 2 mM.

`CSc1ncnc2c1ncn2[C@@H]1O[C@H](CO)[C@@H](O)[C@H]1O`: in experiment [4], the IC50 was found to be 7 µM. This compound gave a Differentiation in experiment [5] of 51%. Also, the Optimal concentration in experiment [6] is recorded as 0.005 mM.

In the case of `OC[C@H]1OC(n2c(S)nc3c(O)ncnc32)[C@H](O)[C@@H]1O` (stereo partly specified), the IC50 in experiment [4] was above 4000 µM. For the same compound, the Differentiation in experiment [5] worked out at 1%. The same compound had an Optimal concentration in experiment [6] of 4 mM.

Regarding `O=c1[nH]c(=O)c2nc(O)n(C3O[C@H](CO)[C@@H](O)[C@H]3O)c2[nH]1` (stereo partly specified), the IC50 in experiment [4] is above 7000 µM. The Differentiation in experiment [5] is 3%. The compound also came in with an Optimal concentration in experiment [6] of 7 mM.

Consider `O=c1[nH]c(=O)c2nc(Br)n(C3O[C@H](CO)[C@@H](O)[C@H]3O)c2[nH]1` (stereo partly specified), for which the IC50 in experiment [4] is above 7000 µM. Also, in experiment [5], the Differentiation turned out to be 1%. Further, in experiment [6], the Optimal concentration is listed as 7 mM.

On to `O=c1[nH]c(=O)c2nc(OCc3ccccc3)n(C3O[C@H](CO)[C@@H](O)[C@H]3O)c2[nH]1` (stereo partly specified), for which, in experiment [4], the IC50 is above 7000 µM. The compound further registered a Differentiation in experiment [5] of 6%. Further, in experiment [6], the Optimal concentration came out at 7 mM.

Turning to `Nc1ncnc2c1ncn2[C@@H]1O[C@H](CO)[C@@H](O)[C@H]1O` [ADENOSINE], the IC50 in experiment [1] is 50 µM; in experiment [4] it was above 4000 µM. Besides, the Optimal concentration in experiment [3] amounted to 0.04 mM; in experiment [6] it was 4 mM. Moreover, the results for the Differentiation in experiment [8] and in experiment [5] were 2% and 3%, respectively.

On to `C[S+](C)[O-]` [DIMETHYL SULFOXIDE], for which, in experiment [5], the Differentiation was determined as 70%. For the same compound, the Optimal concentration in experiment [6] was 200 mM.

For `O=c1[nH]cnc2c1ncn2[C@@H]1O[C@H](CO)[C@@H](O)[C@H]1O` [INOSINE], the IC50 in experiment [4] is above 7000 µM. Moreover, in experiment [5], the Differentiation is 12%. Besides, the Optimal concentration in experiment [6] is 7 mM.

In the case of `OC[C@H]1O[C@@H](n2cnc3c(S)ncnc32)[C@H](O)[C@@H]1O` [THIOINOSINE], in experiment [4], the IC50 was above 2000 µM. The same compound came in with a Differentiation in experiment [5] of 51%. Further, the Optimal concentration in experiment [6] was 1 mM.

For the compound `Nc1ncnc2c1ncn2[C@@H]1O[C@H](CO)[C@@H](O)[C@@H]1O` [VIDARABINE], the IC50 was 3 µM in experiment [1] and 94 µM in experiment [4]. For the same compound, the Optimal concentration in experiment [3] is recorded as 0.002 mM; in experiment [6] it was 0.08 mM. Besides, the results for the Differentiation in experiment [8] and in experiment [5] were 22% and 4%, respectively.

As to `OC[C@H]1O[C@@H](n2cnc3c(O)nc(O)nc32)[C@H](O)[C@@H]1O` [XANTHOSINE], the IC50 in experiment [4] is above 7000 µM. Moreover, the Optimal concentration in experiment [6] is listed as 7 mM.

These data come from ChEMBL document CHEMBL1122820, “Purine and 8-substituted purine arabinofuranosyl and ribofuranosyl nucleoside derivatives as potential inducers of the differentiation of the Friend erythroleukemia” (1985).
